These results are taken from patent US20210238124A1, “ACETYLATED PRODRUGS FOR DELIVERY ACROSS THE BLOOD-BRAIN BARRIER” (THE GENERAL HOSPITAL CORPORATION, priority 2018, published 2021).

Series [1] concerns the target Aβ42 fibers (Homo sapiens, UniProt P05067). Particulars: cited from earlier work.
Series [2] in a line: Biodistribution of 4-[^18F]-fluoroinositol in normal rats. The format is in vivo. The note with it: FIG. 1.
Series [3] is described as follows: Biodistribution / brain uptake of ^18F-scyllo-inositols 1 and 2. The format is in vivo, rats. As to the method: Brain uptake (% DPG) at 5, 30, and 60 min for the acetylated derivative 1 was 0.8%, 0.9%, and 0.26% (See FIG. 4).
Inositol is transported across the blood-brain barrier by a low capacity, saturable system.

For series [4] the following is noted: rat, in vivo. As to the method:
Here, imaging is performed in normal rats and rats pretreated with mannitol.
PET imaging was performed in a rats using a Siemens Focus 220 scanner with Neurological CT scanner. [^18F]-fluoromannitol (1.2 mCi) was injected via tail-vein and imaged in list mode for one hour.
In a separate experiment, a 25% solution of D-mannitol was i.v. injected 30 min prior to tracer injection.

The test system of series [5] is large intestinal cancer. The note with it: rats fed prior to carcinogen treatment; cited from earlier work.

Aβ42 fibers, sequence (P05067 672-713 limits assumed): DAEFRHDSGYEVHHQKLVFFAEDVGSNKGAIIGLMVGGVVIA

For the compound `OC1C(O)C(O)C(F)C(O)C1O` (centres unmarked) [1-deoxy-1-fluoro-scyllo-inositol], the “formation of Aβ42 fibers” value in series [1] was “significantly inhibit”.
For the compound `OC1C(O)C(O)C(F)C(O)C1O` (centres unmarked) [4-[^18F]-fluoroinositol, 4-deoxy-4-fluoro-myo-inositol], in series [2], the defluorination entry is listed as “minimal”; the “tissue accumulation (biodistribution)” value is “high and fast accumulation in kidney and bladder without any other specific tissue accumulation”.
As for `CC(=O)OC1C([18F])C(OC(C)=O)C(OC(C)=O)C(OC(C)=O)C1OC(C)=O` (centres unmarked) [Compound 1, 1-deoxy-1-[^18F]-fluoro-2,3,4,5,6-penta-O-acetyl-scyllo-inositol], in series [3] (rat, in vivo), the brain clearance result is listed as “significant brain clearance”.
Turning to `OC1C(O)C(O)C([18F])C(O)C1O` (centres unmarked) [Compound 2, 1-deoxy-1-[^18F]-fluoro-scyllo-inositol], the “Brain uptake (% DPG)” value in series [3] (5 min) stood at 0.18 % DPG; in series [3] (30 min), 0.30 % DPG; in series [3] (60 min) it was 0.36 % DPG. The “site of majority of the activity” value in series [3] (FIG. 5) is on record as “majority of the activity accumulating in kidneys”.
Regarding `OC[C@@H](O)[C@@H](O)[C@H](O)[C@H](O)C[18F]` [[^18F]-Fluoromannitol, 1-deoxy-1-[^18F]-fluoro-D-mannitol], in series [4], the “Brain accumulation (% injected dose)” value was 0.1 % ID; the “Brain activity (% injected dose)” value is listed as 0.08 % ID; the “brain uptake in the images” value was “high brain uptake”; the early brain kinetics entry is “very fast flow related brain accumulation and washout”.
Consider `O[C@H]1[C@H](O)[C@@H](O)[C@H](O)[C@@H](O)[C@@H]1O` [scyllo-inositol], for which the “formation of Aβ42 fibers” value in series [1] was “inhibiting Aβ42 fiber formation”.
Consider `O=P([O-])(O)OC1C(OP(=O)(O)O)C(OP(=O)(O)O)C(OP(=O)(O)O)C(OP(=O)(O)O)C1OP(=O)(O)O.[Na+]` (centres unmarked) [sodium inositol hexaphosphate], for which, in series [5], the “decrease in large intestinal cancer compared to the control carcinogen group” value is 35%.
